T/C data for 10 compounds are collected here from PubChem BioAssay AID256 (DTP/NCI, 2004).

Inconclusive results and toxic doses are left out.

This assay concerns CD2F1 mice, L1210 leukemia ip, survival T/C. Description: NCI In Vivo Anticancer Drug Screen. Data for tumor model L1210 Leukemia (intraperitoneal) in CD2F1 (CDF1) mice. Particulars: higher = longer survival. The method in brief:
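Vehicle-treated tumor-bearing mice served as controls (C) for compound-treated mice (T). Reported figure is T divided by C.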

Where [1] appears, read: endpoint: mean survival time, dose: 100.0 mg/kg/injection, schedule: Q04DX003 (ip), vehicle: saline with Tween-80.
Where [2] appears, read: endpoint: mean survival time, dose: 200.0 mg/kg/injection, schedule: Q04DX003 (ip), vehicle: saline with Tween-80.
The mark [3] stands for this setting: endpoint: mean survival time, dose: 400.0 mg/kg/injection, schedule: Q04DX003 (ip), vehicle: saline with Tween-80.

As to `CCOc1ccc(-c2nc(N)nc(N)n2)cc1`, the T/C is 101 % of control (endpoint: mean survival time, dose: 12.5 mg/kg/injection, schedule: Q01DX009 (ip), vehicle: water); 97 % of control (endpoint: mean survival time, dose: 25.0 mg/kg/injection, schedule: Q01DX009 (ip), vehicle: water); 97 % of control (endpoint: mean survival time, dose: 50.0 mg/kg/injection, schedule: Q01DX009 (ip), vehicle: water); 97 % of control (endpoint: mean survival time, dose: 100.0 mg/kg/injection, schedule: Q01DX009 (ip), vehicle: water); 97 % of control (endpoint: mean survival time, dose: 200.0 mg/kg/injection, schedule: Q01DX009 (ip), vehicle: water).
As for `NC(N)=N/N=C\c1ccc(/C=N/N=C(N)N)cc1`, the T/C by setting is: (endpoint: mean survival time, dose: 3.0 mg/kg/injection, schedule: Q01DX010 (ip), vehicle: saline) 102 % of control; (endpoint: mean survival time, dose: 5.0 mg/kg/injection, schedule: Q01DX010 (ip), vehicle: saline) 106 % of control; (endpoint: mean survival time, dose: 8.0 mg/kg/injection, schedule: Q01DX010 (ip), vehicle: saline) 110 % of control; (endpoint: mean survival time, dose: 12.0 mg/kg/injection, schedule: Q01DX010 (ip), vehicle: saline) 112 % of control.
As for `CN1C(CC(O)(c2ccccc2)c2ccccc2)CCCC1CC(O)(c1ccccc1)c1ccccc1` (stereo unspecified), the T/C was 91 % of control (endpoint: mean survival time, dose: 100.0 mg/kg/injection, schedule: Q01DX001 (ip), vehicle: saline with Tween-80); 96 % of control (endpoint: mean survival time, dose: 200.0 mg/kg/injection, schedule: Q01DX001 (ip), vehicle: saline with Tween-80); 91 % of control (endpoint: mean survival time, dose: 400.0 mg/kg/injection, schedule: Q01DX001 (ip), vehicle: saline with Tween-80).
`CC1CC([NH-])C([NH-])C(C)(C)C1.[Cl][Pt+2][Cl]` (stereo unspecified): the T/C is, setting by setting: (endpoint: median survival time, dose: 10.0 mg/kg/injection, schedule: Q04DX003 (ip), vehicle: Klucel (hydroxypropylcellulose) (HPC)) 117 % of control; (endpoint: median survival time, dose: 50.0 mg/kg/injection, schedule: Q04DX003 (ip), vehicle: Klucel + Tween-80) 153 % of control; (endpoint: median survival time, dose: 100.0 mg/kg/injection, schedule: Q04DX003 (ip), vehicle: Klucel + Tween-80) 155 % of control.
With `Cc1ccc(S(=O)(=O)NN2CCOC2=O)cc1`, the T/C reads like this: (endpoint: mean survival time, dose: 50.0 mg/kg/injection, schedule: Q01DX009 (ip), vehicle: Klucel (hydroxypropylcellulose) (HPC)) 100 % of control; (endpoint: mean survival time, dose: 100.0 mg/kg/injection, schedule: Q01DX009 (ip), vehicle: Klucel (hydroxypropylcellulose) (HPC)) 91 % of control; (endpoint: mean survival time, dose: 200.0 mg/kg/injection, schedule: Q01DX009 (ip), vehicle: Klucel (hydroxypropylcellulose) (HPC)) 100 % of control.
Consider `CN(C)C(=O)C(Cc1c[nH]c2ccccc12)NC(=O)c1ccccc1` (stereo unspecified), for which the T/C is 95 % of control (endpoint: mean survival time, dose: 100.0 mg/kg/injection, schedule: Q04DX002 (ip), vehicle: saline with Tween-80); 103 % of control (endpoint: mean survival time, dose: 200.0 mg/kg/injection, schedule: Q04DX002 (ip), vehicle: saline with Tween-80); 98 % of control (endpoint: mean survival time, dose: 400.0 mg/kg/injection, schedule: Q04DX002 (ip), vehicle: saline with Tween-80).
Consider `O=C(O)CSc1nc2ccccc2s1`, for which the T/C by setting is: (endpoint: mean survival time, dose: 25.0 mg/kg/injection, schedule: Q01DX009 (ip), vehicle: saline with Tween-80) 96 % of control; (endpoint: mean survival time, dose: 50.0 mg/kg/injection, schedule: Q01DX009 (ip), vehicle: saline with Tween-80) 95 % of control; (endpoint: mean survival time, dose: 100.0 mg/kg/injection, schedule: Q01DX009 (ip), vehicle: saline with Tween-80) 97 % of control; under setting [1], 93 % of control; under setting [2], 94 % of control; under setting [3], 96 % of control.
As to `COc1ccc(C(=O)CC(C#N)c2ccc3c(c2)OCO3)cc1OC` (stereo unspecified), the T/C under setting [1] is 93 % of control, the T/C under setting [2] was 91 % of control and the T/C under setting [3] was 93 % of control.
Regarding `CN(C)S(=O)(=O)c1ccccc1C(O)(c1ccccc1)c1ccccc1` (tested in a mixture with another compound), the T/C is 92 % of control under setting [1], 87 % of control under setting [2] and 98 % of control under setting [3].
Consider `Nc1n[nH]c(=S)n1-c1ccc(Cl)cc1`, for which the T/C is 97 % of control (endpoint: mean survival time, dose: 100.0 mg/kg/injection, schedule: Q01DX009 (ip), vehicle: acetone); 101 % of control (endpoint: mean survival time, dose: 200.0 mg/kg/injection, schedule: Q01DX009 (ip), vehicle: acetone); 106 % of control (endpoint: mean survival time, dose: 400.0 mg/kg/injection, schedule: Q01DX009 (ip), vehicle: acetone).
